Results: publication PMC11898701, “Evaluating Therapeutic Efficacy of the Vascular Disrupting Agent OXi8007 Against Kidney Cancer in Mice” (Cancers, 2025)

What was measured:
[1] = test system: Renca-luc cells; experiment: Renca-luc sulforhodamine B (SRB) assay, cell growth inhibition; format: cell-based; details: Mus musculus, 48 h
Description: In two independent trials of Renca and Renca-luc cells were plated in triplicate at 8000 cells/well into 96-well plates and incubated for 24 h at 37 °C in a humidified incubator with 5% CO2 followed by a 48 h treatment period at ten-fold dilutions of the drug.

[2] = test system: Renca cells; experiment: Microtubule disruption and cell morphology in Renca cells; format: cell-based, mouse; details: 2.5 and 5 µM
Description: Renca cells were plated in cell culture-treated 96-well plates (Grenier Bio-One North America Inc., Monroe, NC, USA) at 2000 cells/well and allowed to adhere for 24 h before treatment. Hoechst 33342 (1 μg/mL) in complete RPMI 1640 medium was used to stain the cell nuclei for 15 min at 37 °C. […] The medium was removed to reduce background fluorescence, followed by two wash cycles with fresh medium. Fresh medium containing 25 μM of verapamil hydrochloride was added to the stained cells prior to imaging. Images of the microtubule cytoskeleton and nuclei were collected over 3 h using a Biotek Lionheart microscope ELx800 in fluorescence mode with a 20× objective.

[3] = Blood pressure assessment (CODA system); format: in vivo, mouse
Description: Blood pressure was measured using a CODA system (Kent Scientific, Torrington, CT, USA) on 5 adult male BALB/c mice. Mice were anesthetized with 2% isoflurane in oxygen at 1 dm^3/min and placed on the CODA IR heating pad with a feedback rectal temperature probe and nosecone to maintain anesthesia. An occlusion cuff and VPR cuff were placed on the tail. The baseline measurement was recorded over 30 min, then OXi8007 (250 mg/kg or 325 mg/kg) was administered IP and the blood pressure measurement resumed for 45 min. As positive and negative controls, hydralazine (1 mg/kg) or saline, respectively, were injected IP.

[4] = test system: orthotopic XP258 human tumor xenografts; experiment: Long-term therapy of XP258 human tumor xenografts; format: in vivo, mouse
From the text: The animal procedures were approved by the UT Southwestern Medical Center Institutional Animal Care and Use Committee under APNs 2017-102152 and 2018-102344-CORE. Renca-luc orthotopic tumors were induced by inserting tumor tissue (~1 mm^3) harvested from a donor mouse into the right kidney of syngeneic BALB/c mice (age 8 weeks, male and female; Envigo, Indianapolis, IN, USA), as described previously. Orthotopic XP258 tumors (derived from a patient with pT3aN0M1 clear cell RCC) were obtained from the UT Southwestern Kidney Cancer SPORE [53, 54] and maintained by serial passage. Tumors were induced by inserting tumor tissues from a donor tumor into the left kidney capsule of female NOD/SCID mice (Envigo).
OXi8007, synthesized by the Pinney Laboratory using published procedures, was dissolved in saline, verified to be in the pH range 7.3 to 7.5, and dosed at 250 mg/kg (IP). Cabozantinib (in PEG400 and ultrapure H2O (Milli-Q)) was administered at 3 mg/kg by oral gavage. Anti-PD-1 (10 mg/kg, Bio X Cell, Lebanon, NH, USA) and anti-CTLA-4 (5 mg/kg, Bio X Cell, Lebanon, NH) solutions were administered (IP) on the day before OXi8007 […].
We evaluated the longitudinal effects of OXi8007 alone and in combination with drugs currently favored for treating kidney cancer. For Renca-luc tumor-bearing mice, BLI was performed at least once a week to estimate tumor size, and mice were weighed weekly to adjust the dose as needed. Two treatment cohorts examined syngeneic orthotopic Renca-luc tumors in male BALB/c mice. Treatment started when the tumors reached about 1 × 10^6 photons/s peak total flux on BLI. The first cohort examined OXi8007 with cabozantinib. Mice were divided into four groups. Mice were assigned to groups as soon as there were sufficient to add the same numbers of animals to each group. The specific assignment was defined using the random number function in Excel. As such, each group included both faster- and slower-growing tumors. […]

[5] = test system: orthotopic XP258 human tumor xenografts; experiment: Acute response of XP258 tumors by MSOT; format: in vivo, mouse; details: XP258, four hours post-treatment, 250 mg/kg IP
Description: For the multispectral optoacoustic tomography (MSOT), an iThera InVision 256-TF device with seven wavelengths (700, 730, 760, 780, 800, 820, and 875 nm) was used. Mice were shaved and depilated around the tumor region. The anesthetized mouse (1–2% isoflurane) was placed in the imaging chamber (34 °C) for 10 min to reach thermal equilibrium before imaging a single slice showing the largest cross-section of the tumor. An oxygen gas breathing challenge was performed to assess the dynamic changes in blood oxygenation. Images were generated using ViewMSOT version 4.2 with a back projection-based reconstruction algorithm followed by built-in fluence correction. Oxy- and deoxyhemoglobin were resolved using a linear regression approach.
Oxygen saturation (sO2) maps were analyzed using MATLAB 2022b (MathWorks Inc., Natick, MA, USA), and the images were visualized with Fiji. The percentage of hemoglobin saturation (sO2) was calculated as follows:[…]
Blank pixels represent areas lacking a detectable hemoglobin signal. The average sO2^MSOT was calculated pixelwise in each ROI for the air and oxygen breathing periods as sO2^MSOT (Air) and sO2^MSOT (O2), and the response to the oxygen gas challenge was as follows:∆sO2 = sO2 (O2) − sO2 (Air)(2)

[6] = test system: subcutaneous MDA-MB-231 tumors; set-up: method as in earlier work; details: cited from earlier work

In the case of `COc1ccc2c(C(=O)c3cc(OC)c(OC)c(OC)c3)c(-c3ccc(OC)c(OP(=O)(O)O)c3)[nH]c2c1` [OXi8007], the IC50 [1] is reported as 1.56 ± 0.048 µM, the “Effect on microtubule structure” value [2] is reported as “rapid progressive loss of microtubule structure” and the “Duration of temporary elevation in blood pressure” value ([3]; 250 mg/kg IP) is reported as “less than 20 min”. The “Diastolic blood pressure after administration” value ([3]; 250 mg/kg IP, 5 male BALB/c mice, baseline 84 ± 2) was 82 mmHg, the “Mean blood pressure after administration” value ([3]; 250 mg/kg IP, 5 male BALB/c mice, baseline 94 ± 2) was 94 mmHg and the “Systolic blood pressure after administration” value ([3]; 250 mg/kg IP, 5 male BALB/c mice, baseline 115 ± 3) was 117 mmHg. The “Effect on mouse blood pressure” value ([3]; 250 mg/kg IP, systolic, diastolic or mean) was “minimal effect”, the “Effect on mouse blood pressure” value ([3]; 325 mg/kg IP) was “larger transient change” and the “Tumor weights at sacrifice” value ([4]; XP258, long-term therapy, monotherapy or combined) was “much smaller tumors”. The Survival versus controls ([4]; XP258 in NOD/SCID mice, OXi8007 250 mg/kg IP twice weekly, cabozantinib 3 mg/kg oral daily) was “significantly enhanced survival”, the “Tumor vascular oxygenation (MSOT)” value [5] was “less well oxygenated and less responsive to the oxygen gas breathing challenge” and the Tumor growth delay [6] was “significant tumor growth delay”.
